# Laboratory results: patent publication US20250188040A1, “PHARMACEUTICAL COMPOSITIONS COMPRISING WRN HELICASE INHIBITORS” (Vividion Therapeutics, Inc., priority 2022, published 2025)
# Like-named read-outs stand apart in the source and are kept apart here.
# Legend:
# WRN C727 = target: T1, WRN C727 (Homo sapiens, UniProt Q14191); assay: Target engagement, in vitro (lysate), OCI-AML2; assay type: binding; details: read-out: OCI-AML2 WRN C727 TE50 in vitro (lysate)
# T1 construct: endogenous in cells; host or cells: OCI-AML2
# Outline: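 Percent engagement of WRN C727 is expressed against DMSO-treated samples, measured by PRM mass spectrometry of streptavidin-enriched, probe-tagged tryptic peptides. Compound dose responses preceded probe labelling of solvent-exposed cysteines, in either living OCI-AML2 cells or their lysates.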
# [1] = target: hWRN(519-1227)_C-H3CV-GFP-10His (Homo sapiens, UniProt Q14191); assay: Helicase Assay for WRN Inhibition (ATP-dependent, fluorescence based)
# SW480 cells = assay: Cell growth assay (CellTiter-Glo 2.0), SW480 MSS cell line; details: Homo sapiens, SW480, 120 h, read-out: Cell Growth Inhibition GI50 SW480
# Protocol: The effects of compound on cellular viability were determined using the CellTiter-Glo® 2.0 Luminescent Cell Viability Assay (Promega, Madison, WI).
# SW480 cells were seeded at 1,000 cells per well in Eagle's Minimum Essential Medium (EMEM) with 10% FBS. Both cell lines were seeded in a volume of 50 μL medium per well. […] The concentration range was adjusted as needed for compounds of different potencies. The cells treated with compounds were incubated for 5 days at 37° C. in 5% CO2. […] The plate was then read on a Clariostar plate reader (BMG Labtech, Cary, NC) in luminescence mode. The previously measured baseline cell viability was subtracted from the luminescence value of each well, and cell viability (% of DMSO) was plotted as a function of log compound concentration. The EC50 was then calculated for each compound using Dotmatics Software (San Diego, CA).
# HCT 116 cells = assay: Cell growth assay (CellTiter-Glo 2.0), HCT 116 MSI-H cell line; details: Homo sapiens, HCT-116, 120 h, read-out: Cell Growth Inhibition GI50 HCT-116
# [2] = WRN Helicase IC50, 30 min preincubation with ATP, 30 min reaction
# T1 sequence (Q14191 whole entry): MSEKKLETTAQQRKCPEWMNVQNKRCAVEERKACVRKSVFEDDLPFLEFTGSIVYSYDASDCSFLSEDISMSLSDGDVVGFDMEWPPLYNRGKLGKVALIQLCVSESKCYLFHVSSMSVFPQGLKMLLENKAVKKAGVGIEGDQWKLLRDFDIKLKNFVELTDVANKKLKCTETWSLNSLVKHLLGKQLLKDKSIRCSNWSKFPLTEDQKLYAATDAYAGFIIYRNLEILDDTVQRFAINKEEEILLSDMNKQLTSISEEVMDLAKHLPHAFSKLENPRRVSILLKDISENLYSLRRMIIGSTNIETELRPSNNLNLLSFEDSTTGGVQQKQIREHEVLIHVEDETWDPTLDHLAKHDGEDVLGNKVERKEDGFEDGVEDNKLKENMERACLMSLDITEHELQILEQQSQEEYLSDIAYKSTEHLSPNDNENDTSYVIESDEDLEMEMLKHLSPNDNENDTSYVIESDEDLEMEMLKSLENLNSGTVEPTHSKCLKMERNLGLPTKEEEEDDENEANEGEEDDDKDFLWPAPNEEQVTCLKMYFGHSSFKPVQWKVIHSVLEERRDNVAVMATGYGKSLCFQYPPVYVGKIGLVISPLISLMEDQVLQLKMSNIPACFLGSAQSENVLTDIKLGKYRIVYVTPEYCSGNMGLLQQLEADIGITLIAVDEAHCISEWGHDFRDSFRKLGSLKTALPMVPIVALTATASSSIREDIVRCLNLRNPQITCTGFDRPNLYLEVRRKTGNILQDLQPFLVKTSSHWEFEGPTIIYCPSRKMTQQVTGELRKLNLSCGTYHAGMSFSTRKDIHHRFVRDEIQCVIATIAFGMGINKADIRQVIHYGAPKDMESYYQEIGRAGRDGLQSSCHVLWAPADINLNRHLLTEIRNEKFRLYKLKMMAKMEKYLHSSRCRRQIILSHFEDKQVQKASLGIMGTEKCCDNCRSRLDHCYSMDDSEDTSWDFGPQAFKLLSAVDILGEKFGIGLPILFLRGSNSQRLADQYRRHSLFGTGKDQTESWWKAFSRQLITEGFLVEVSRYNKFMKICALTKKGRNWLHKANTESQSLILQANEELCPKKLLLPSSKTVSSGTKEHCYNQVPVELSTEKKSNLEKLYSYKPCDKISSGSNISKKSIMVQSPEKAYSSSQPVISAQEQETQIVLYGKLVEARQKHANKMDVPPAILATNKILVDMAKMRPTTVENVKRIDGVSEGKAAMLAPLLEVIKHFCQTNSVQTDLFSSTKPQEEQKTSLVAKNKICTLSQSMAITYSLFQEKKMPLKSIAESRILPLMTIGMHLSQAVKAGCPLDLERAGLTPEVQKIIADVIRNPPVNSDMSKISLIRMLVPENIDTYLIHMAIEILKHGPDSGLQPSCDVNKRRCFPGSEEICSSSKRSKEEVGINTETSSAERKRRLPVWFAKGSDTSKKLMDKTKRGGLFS
# hWRN(519-1227)_C-H3CV-GFP-10His, sequence (Q14191 519-1227): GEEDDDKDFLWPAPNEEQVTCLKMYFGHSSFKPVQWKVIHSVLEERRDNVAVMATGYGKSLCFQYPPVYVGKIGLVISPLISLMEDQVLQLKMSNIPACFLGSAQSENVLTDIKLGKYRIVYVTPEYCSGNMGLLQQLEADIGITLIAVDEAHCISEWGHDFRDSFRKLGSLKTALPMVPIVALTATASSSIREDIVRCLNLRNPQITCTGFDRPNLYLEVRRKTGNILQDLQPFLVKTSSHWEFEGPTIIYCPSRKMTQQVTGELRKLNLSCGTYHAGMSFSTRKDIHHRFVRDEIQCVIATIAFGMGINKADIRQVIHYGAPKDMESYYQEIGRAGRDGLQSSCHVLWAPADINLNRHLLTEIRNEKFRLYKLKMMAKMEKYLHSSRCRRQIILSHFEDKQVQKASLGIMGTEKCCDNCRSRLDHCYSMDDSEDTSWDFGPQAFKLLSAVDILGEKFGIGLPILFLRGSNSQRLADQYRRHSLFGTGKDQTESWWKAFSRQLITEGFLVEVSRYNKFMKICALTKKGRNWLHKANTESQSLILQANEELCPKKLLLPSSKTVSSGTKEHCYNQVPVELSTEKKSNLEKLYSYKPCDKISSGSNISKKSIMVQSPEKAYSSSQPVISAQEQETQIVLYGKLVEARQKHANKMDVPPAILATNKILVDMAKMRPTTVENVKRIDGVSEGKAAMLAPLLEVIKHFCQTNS
structure (smiles),measurement,setting,value
"C[C@@H]1CCCN1c1ncc(C(=O)N[C@@H](C)/C=C/S(C)(=O)=O)c(Oc2ccccc2)n1 [Example 176, 2-((R)-2-methylpyrrolidin-1-yl)-N—((S,E)-4-(methylsulfonyl)but-3-en-2-yl)-4-phenoxypyrimidine-5-carboxamide]",IC50,WRN C727,1.66 µM
same,IC50,[1]; [2],1.6 µM
same,GI50,SW480 cells,13 µM
same,GI50,HCT 116 cells,0.44 µM
"CS(=O)(=O)/C=C/[C@@H](NC(=O)c1cnc(N2CCC2)nc1Oc1ccccc1)C1CC1 [Example 181, (S,E)-2-(azetidin-1-yl)-N-(1-cyclopropyl-3-(methylsulfonyl)allyl)-4-phenoxypyrimidine-5-carboxamide]",IC50,WRN C727,27.2 µM
same,IC50,[1]; [2],0.87 µM
same,GI50,SW480 cells,17 µM
same,GI50,HCT 116 cells,0.0884 µM
"CS(=O)(=O)/C=C/[C@@H](NC(=O)c1cnc(N2CC(F)C2)nc1Oc1ccccc1)C1CC1 [Example 182, (S,E)-N-(1-cyclopropyl-3-(methylsulfonyl)allyl)-2-(3-fluoroazetidin-1-yl)-4-phenoxypyrimidine-5-carboxamide]",IC50,WRN C727,4.86 µM
same,IC50,[1]; [2],1.1 µM
same,GI50,SW480 cells,19 µM
same,GI50,HCT 116 cells,0.108 µM
"CN(CC(F)(F)F)c1ncc(C(=O)N[C@H](/C=C/S(C)(=O)=O)C2CC2)c(Oc2ccccc2)n1 [Example 184, (S,E)-N-(1-cyclopropyl-3-(methylsulfonyl)allyl)-2-(methyl(2,2,2-trifluoroethyl)amino)-4-phenoxypyrimidine-5-carboxamide]",IC50,WRN C727,1.3 µM
same,IC50,[1]; [2],2.4 µM
same,GI50,SW480 cells,3.1 µM
same,GI50,HCT 116 cells,0.191 µM
"CCN(C)c1ncc(C(=O)N[C@H](/C=C/S(C)(=O)=O)C2CC2)c(Oc2ccccc2)n1 [Example 185, (S,E)-N-(1-cyclopropyl-3-(methylsulfonyl)allyl)-2-(ethyl(methyl)amino)-4-phenoxypyrimidine-5-carboxamide]",IC50,WRN C727,1.72 µM
same,IC50,[1]; [2],0.239 µM
same,GI50,SW480 cells,5.4 µM
same,GI50,HCT 116 cells,0.0274 µM
"CC(C)N(C)c1ncc(C(=O)N[C@H](/C=C/S(C)(=O)=O)C2CC2)c(Oc2ccccc2)n1 [Example 186, (S,E)-N-(1-cyclopropyl-3-(methylsulfonyl)allyl)-2-(isopropyl(methyl)amino)-4-phenoxypyrimidine-5-carboxamide]",IC50,WRN C727,0.42 µM
same,IC50,[1]; [2],0.2 µM
same,GI50,SW480 cells,3.3 µM
same,GI50,HCT 116 cells,0.0195 µM
"CC(=O)C=C1CN(C(=O)c2cnc(C(C)(C)C)nc2Oc2ccccc2)C1 [Example 190, 1-(1-(2-(tert-butyl)-4-phenoxypyrimidine-5-carbonyl)azetidin-3-ylidene)propan-2-one]",IC50,WRN C727,0.69 µM
same,IC50,[1],0.31 µM
same,GI50,SW480 cells,5.4 µM
same,GI50,HCT 116 cells,0.53 µM
"COC(=O)C=C1CN(C(=O)c2cnc(C(C)(C)C)nc2Oc2ccccc2)C1 [Example 191, methyl 2-(1-(2-(tert-butyl)-4-phenoxypyrimidine-5-carbonyl)azetidin-3-ylidene)acetate]",IC50,WRN C727,2.19 µM
same,IC50,[1],0.91 µM
same,GI50,SW480 cells,7.4 µM
same,GI50,HCT 116 cells,0.26 µM
"C[C@@H](/C=C/S(C)(=O)=O)NC(=O)c1cnc(C2CCCC2)nc1OC1CCCC1 [Example 197, (S,E)-2-cyclopentyl-4-(cyclopentyloxy)-N-(4-(methylsulfonyl)but-3-en-2-yl)pyrimidine-5-carboxamide]",IC50,WRN C727,6.24 µM
same,IC50,[1]; [2],1.69 µM
same,GI50,SW480 cells,6.19 µM
same,GI50,HCT 116 cells,0.709 µM
"C[C@@H](/C=C/S(C)(=O)=O)NC(=O)c1cnc(C2=CCCC2)cc1Oc1ccccc1 [Example 200, (S,E)-6-(cyclopent-1-en-1-yl)-N-(4-(methylsulfonyl)but-3-en-2-yl)-4-phenoxynicotinamide]",IC50,WRN C727,21.7 µM
same,IC50,[1]; [2],4.5 µM
same,GI50,SW480 cells,> 10 µM
same,GI50,HCT 116 cells,3.6 µM
"C[C@@H](/C=C/S(C)(=O)=O)NC(=O)c1ccc(C2=CCCC2)nc1Oc1ccccc1 [Example 202, (S,E)-6-(cyclopent-1-en-1-yl)-N-(4-(methylsulfonyl)but-3-en-2-yl)-2-phenoxynicotinamide]",IC50,WRN C727,75 µM
same,IC50,[1]; [2],8.6 µM
same,GI50,SW480 cells,> 10 µM
same,GI50,HCT 116 cells,7.2 µM
"CC(C)=Cc1ncc(C(=O)N[C@@H](C)/C=C/S(C)(=O)=O)c(Oc2ccccc2)n1 [Example 213, (S,E)-2-(2-methylprop-1-en-1-yl)-N-(4-(methylsulfonyl)but-3-en-2-yl)-4-phenoxypyrimidine-5-carboxamide]",IC50,WRN C727,> 100 µM
same,IC50,[1]; [2],11 µM
same,GI50,SW480 cells,12.7 µM
same,GI50,HCT 116 cells,2.16 µM
"CC(C)Cc1ncc(C(=O)N[C@@H](C)/C=C/S(C)(=O)=O)c(Oc2ccccc2)n1 [Example 214, (S,E)-2-isobutyl-N-(4-(methylsulfonyl)but-3-en-2-yl)-4-phenoxypyrimidine-5-carboxamide]",IC50,WRN C727,> 100 µM
same,IC50,[1]; [2],10 µM
same,GI50,SW480 cells,> 19.5 µM
same,GI50,HCT 116 cells,2.47 µM
"C[C@@H](/C=C/S(C)(=O)=O)NC(=O)c1cnc(C2(O)CCCC2)nc1Oc1ccccc1 [Example 216, (S,E)-2-(1-hydroxycyclopentyl)-N-(4-(methylsulfonyl)but-3-en-2-yl)-4-phenoxypyrimidine-5-carboxamide]",IC50,WRN C727,13.8 µM
same,IC50,[1]; [2],7.74 µM
same,GI50,SW480 cells,> 10 µM
same,GI50,HCT 116 cells,2.2 µM
"C[C@@H](/C=C/S(C)(=O)=O)NC(=O)c1cnc(C(C)(C)O)nc1Oc1ccccc1 [Example 218, (S,E)-2-(2-hydroxypropan-2-yl)-N-(4-(methylsulfonyl)but-3-en-2-yl)-4-phenoxypyrimidine-5-carboxamide]",IC50,WRN C727,17.1 µM
same,IC50,[1]; [2],4.3 µM
same,GI50,SW480 cells,> 29.3 µM
same,GI50,HCT 116 cells,1.38 µM
"COC(C)(C)c1ncc(C(=O)N[C@@H](C)/C=C/S(C)(=O)=O)c(Oc2ccccc2)n1 [Example 221, (S,E)-2-(2-methoxypropan-2-yl)-N-(4-(methylsulfonyl)but-3-en-2-yl)-4-phenoxypyrimidine-5-carboxamide]",IC50,WRN C727,20 µM
same,IC50,[1]; [2],8.3 µM
same,GI50,SW480 cells,52 µM
same,GI50,HCT 116 cells,2 µM
"C[C@@H](/C=C/S(C)(=O)=O)NC(=O)c1cnc(C23CC(C2)C3)nc1Oc1ccccc1 [Example 222, (S,E)-2-(bicyclo[1.1.1]pentan-1-yl)-N-(4-(methylsulfonyl)but-3-en-2-yl)-4-phenoxypyrimidine-5-carboxamide]",IC50,WRN C727,1.3 µM
same,IC50,[1]; [2],0.444 µM
same,GI50,SW480 cells,> 15 µM
same,GI50,HCT 116 cells,0.133 µM
"C[C@@H](/C=C/S(C)(=O)=O)NC(=O)c1cnc(C(F)(F)C2CC2)nc1Oc1ccccc1 [Example 223, (S,E)-2-(cyclopropyldifluoromethyl)-N-(4-(methylsulfonyl)but-3-en-2-yl)-4-phenoxypyrimidine-5-carboxamide]",IC50,WRN C727,0.23 µM
same,IC50,[1]; [2],0.18 µM
same,GI50,SW480 cells,19 µM
same,GI50,HCT 116 cells,0.0539 µM
"CCC(F)(F)c1ncc(C(=O)N[C@H](/C=C/S(C)(=O)=O)C2CC2)c(Oc2ccccc2)n1 [Example 230, (S,E)-N-(1-cyclopropyl-3-(methylsulfonyl)allyl)-2-(1,1-difluoropropyl)-4-phenoxypyrimidine-5-carboxamide]",IC50,WRN C727,0.81 µM
same,IC50,[1]; [2],0.11 µM
same,GI50,SW480 cells,14 µM
same,GI50,HCT 116 cells,0.0166 µM
"CC(F)(F)c1cc(Oc2ccccc2)c(C(=O)N[C@H](/C=C/S(C)(=O)=O)C2CC2)cn1 [Example 231, (S,E)-N-(1-cyclopropyl-3-(methylsulfonyl)allyl)-6-(1,1-difluoroethyl)-4-phenoxynicotinamide]",IC50,WRN C727,0.42 µM
same,IC50,[1]; [2],0.21 µM
same,GI50,SW480 cells,61 µM
same,GI50,HCT 116 cells,0.038 µM
"C[C@@H](/C=C/S(C)(=O)=O)NC(=O)c1ccc(C(C)(F)F)nc1Oc1ccccc1 [Example 232, (S,E)-6-(1,1-difluoroethyl)-N-(4-(methylsulfonyl)but-3-en-2-yl)-2-phenoxynicotinamide]",IC50,WRN C727,2.36 µM
same,IC50,[1]; [2],0.3 µM
same,GI50,SW480 cells,28.1 µM
same,GI50,HCT 116 cells,0.0699 µM
"CC(F)(F)c1ccc(C(=O)N[C@H](/C=C/S(C)(=O)=O)C2CC2)c(Oc2ccccc2)n1 [Example 233, (S,E)-N-(1-cyclopropyl-3-(methylsulfonyl)allyl)-6-(1,1-difluoroethyl)-2-phenoxynicotinamide]",IC50,WRN C727,0.48 µM
same,IC50,[1]; [2],0.072 µM
same,GI50,SW480 cells,17 µM
same,GI50,HCT 116 cells,0.0199 µM
"CC(F)(F)c1nc(Oc2ccccc2)c(C(=O)N[C@H](/C=C/S(C)(=O)=O)C2CC2)cc1F [Example 235, (S,E)-N-(1-cyclopropyl-3-(methylsulfonyl)allyl)-6-(1,1-difluoroethyl)-5-fluoro-2-phenoxynicotinamide]",IC50,WRN C727,70 µM
same,IC50,[1]; [2],0.0893 µM
same,GI50,SW480 cells,8.3 µM
same,GI50,HCT 116 cells,0.0394 µM
"C[C@@H](/C=C/S(C)(=O)=O)NC(=O)c1cc2c(cc1Oc1ccccc1)CCC2=O [Example 247, (S,E)-N-(4-(methylsulfonyl)but-3-en-2-yl)-3-oxo-6-phenoxy-2,3-dihydro-1H-indene-5-carboxamide]",IC50,WRN C727,30 µM
same,IC50,[1],8.5 µM
same,GI50,SW480 cells,> 10 µM
same,GI50,HCT 116 cells,6.5 µM
"Cn1ccc2cc(C(=O)N[C@H](/C=C/S(C)(=O)=O)C3CC3)c(Oc3ccccc3)nc21 [Example 250, (S,E)-N-(1-cyclopropyl-3-(methylsulfonyl)allyl)-1-methyl-6-phenoxy-1H-pyrrolo[2,3-b]pyridine-5-carboxamide]",IC50,WRN C727,0.62 µM
same,IC50,[1]; [2],4.5 µM
same,GI50,SW480 cells,44.9 µM
same,GI50,HCT 116 cells,1.14 µM
"Cn1ncc2cc(C(=O)N[C@H](/C=C/S(C)(=O)=O)C3CC3)c(Oc3ccccc3)nc21 [Example 252, (S,E)-N-(1-cyclopropyl-3-(methylsulfonyl)allyl)-1-methyl-6-phenoxy-1H-pyrazolo[3,4-b]pyridine-5-carboxamide]",IC50,WRN C727,0.35 µM
same,IC50,[1]; [2],12 µM
same,GI50,SW480 cells,> 30 µM
same,GI50,HCT 116 cells,2.1 µM
